According to patent US9834575B2, “Cancer therapy” (TriAct Therapeutics, Inc., priority 2013, dated 2017):
≈ marks a conversion by molar mass, not a printed value. Where two headings read alike, the source gives them in different places.

Key:
A427 cells = test: Cell number (CyQuant) after culture in 10% serum from mice orally administered 300 mg/Kg drug, A427; assay type: cell-based, human; settings: A427, 72 h
Procedure: (§1) The plates were incubated for 72 h at 37° C. and the relative cell number per well was determined using the CyQuant® reagent. Fluorescence was measured using a Molecular Devices plate reader. […] Serum from five animals was pooled, mixed with culture medium at a concentration of 10% and cells incubated for 72 hours. Cell number was then determined using the CyQuant® assay. […] Differences in cell number for cells cultured in 10% serum was compared by t-test. P values are: A427, p=0.009; A549, p=0.133; and […], p=0.744.

[1] = In vitro stability of NDGA in freshly drawn whole blood of CD-1 mice; assay type: in vitro ADME; settings: CD-1 mouse whole blood
Procedure: The aliquots were treated with MeCN (1:3 ratio) containing a mixture of internal standards (metoprolol, propranolol, and warfarin, each at 500 ng/mL) for protein precipitation. After centrifugation, supernatants were analyzed directly using LC-HRAMS as described below.

[2] = Solubility of NDGA in intestinal fluids; assay type: physicochemical; settings: fassgf or other biorelevant
H1975, A427, A549 cells = test: Cell survival/proliferation (CyQuant) of NSCLC cell lines in 10% serum from untreated mice spiked with drug; assay type: cell-based, human; settings: 72 h
Procedure: The CyQuant™ assay (Invitrogen) may be used to differentiate antioxidant activity from anti-proliferative activity. Briefly, the assay is based on dye fluorescence enhancement upon binding to cellular nucleic acids. Cells are lysed by addition of a buffer containing the CyQUANT™-GR dye; there are no washing steps, growth medium changes or long incubations. The resulting fluorescence is proportional to the number of cells in the sample and is measured directly using the TD-700 fluorometer equipped with a fluorescein filter kit. The CyQUANT™ assay can detect much lower cell numbers than Neutral Red or methylene blue assays. […] Thus, cells can be frozen prior to assaying; time course assays are facile and data obtained from samples taken at widely different time intervals can be directly compared. […] Cell number differences were measured using the CyQuant® assay (Invitrogen). H1975, A427, A549 cells were seeded at 1×10^4 cells/well in a 96 well plate and incubated overnight at 37° C. […] The plates were incubated for 72 h at 37° C. and the relative cell number per well was determined using the CyQuant® reagent. Fluorescence was measured using a Molecular Devices plate reader.

[3] = Metabolite profiling of NDGA in plasma after oral administration in male CD-1 mice (LC-HRAMS, semi-quantitative); assay type: in vivo
Procedure: The dosing solution was prepared at a nominal concentration of 20 mg/mL; detailed description is shown in Appendix I. The actual concentration, established using HPLC-MS, was 84.9% of nominal (+/−8.9%) and was within the acceptable range according to the study protocol. Animal dosing and blood collection were performed according to the study protocol; details are shown in Appendix II. […] Plasma samples were prepared from blood according to the study protocol. Aliquots of the stabilized (with ascorbic acid) plasma samples were treated with MeCN (1:3 ratio) containing a mixture of internal standards (metoprolol, propranolol, and warfarin, each at 500 ng/mL) for protein precipitation. After centrifugation, clear supernatants were analyzed directly using LC-High Resolution Accurate Mass Spectrometry (HRAMS) as described below.
The samples were separated using HPLC, and two stationary phases were evaluated: ACE pentaflurophenyl C18 (Phenomenex) and dC18 (Waters). […]
Following the pre-scan, the FT analyzer is set to perform a slow survey scan at high resolution (HRMS). […] The decision event selects the two most intense ions detected in the pre-scan which are on the parent mass list. […]
1) Subtraction of the chromatogram of a control sample (solvent control in blank matrix) from the analyzed sample, leading to creation of a “SUB” file (Appendix II). […]

A549 cells = test: Cell number (CyQuant) after culture in 10% serum from mice orally administered 300 mg/Kg drug, A549; assay type: cell-based, human; settings: A549, 72 h
Procedure: as §1

[4] = Exposure (plasma concentration by LC-MS/MS) of NDGA after oral administration in male CD-1 mice at 100 mg/kg; assay type: in vivo; settings: for concentration at 0.167 h / concentration at 0.5 h / concentration at 2 h / concentration at 4 h: male, CD-1, mouse, plasma, po, 100 mg/kg, PO 100 mg/kg; for concentration at 0.167 h: time point 0.167 hr; for concentration at 0.5 h: time point 0.50 hr; for concentration at 2 h: time point 2.0 hr; for concentration at 4 h: time point 4.0 hr
Procedure: Test compound was dosed at 100 mg/kg from 0.5% MC and 0.5% NaCMC in DI water in separate groups. Analytical stock solutions (1 mg/mL of the free drug) were prepared in DMSO. Standards were made from independently prepared stock solutions of the test compound. Standards and QCs were prepared in male CD-1 mouse plasma containing K2EDTA as an anticoagulant with 10% of 0.1M ascorbic acid in water. Standards were prepared at concentrations of 1000, 500, 100, 50, 10, 5, 1, and 0.5 ng/mL by serial dilution. Standards were treated identically to the study samples. Plasma samples were manually extracted using acetonitrile precipitation. All samples were thawed on ice, and kept on ice during preparation. […] [table] • Flow Rate: 300 μL/min • Injection Volume: 10 μL • Run Time: 4.5 min • Temperature: ambient • Autosampler Wash: #1: 1:1:1 (v:v:v) water:acetonitrile:isopropanol with 0.2% formic acid • #2: 50:50 (v:v) methanol:water [table] […] All data are expressed as ng/mL of the free drug. Samples that were below the limit of quantitation were not used in the calculation of averages. Plasma concentrations versus time data are plotted in FIGS. 24 and 25.

[5] = 0.5% MC in DI water, group average
[6] = 0.5% MC in DI water, group average, read-out: Average plasma concentration
[7] = 0.5% NaCMC in DI water, group average
[8] = 0.5% NaCMC in DI water, group average, read-out: Average plasma concentration

Q: For `CC(Cc1ccc(O)c(O)c1)C(C)Cc1ccc(O)c(O)c1` (stereo not shown) [NDGA, nordihydroguaiaretic acid], which “Number of cells after culture in 10% serum from treated mice (in words)” value (A427 cells) is on record?
A: The value was “decrease was statistically significant”.

Q: And the “Stability of NDGA in whole blood” value ([1]; time 0 minutes)?
A: Its value is 100.

Q: And the “Stability of NDGA in whole blood” value ([1]; time 15 minutes)?
A: The value was 7.2.

Q: What about the “Putative metabolites detected upon incubation in whole blood in vitro” value ([1]; up to 60 minutes) of the same molecule?
A: The value was “No putative metabolites were detected”.

Q: What about the “Stability in whole blood sample (in words)” value ([1]; possibly impacted by poor recovery) of the same molecule?
A: Its value is “appears to be unstable”.

Q: And the solubility [2]?
A: Its solubility is roughly 8 µg/mL (≈ 26.5 µM).

Q: And the Concentration above which reduced cell proliferation was observed (H1975, A427, A549 cells; 10% mouse serum spiked with drug)?
A: Its Concentration above which reduced cell proliferation was observed is greater than 10 µM.

Q: What about the Cell number reduced (H1975, A427, A549 cells; maximum concentration tested, 10% mouse serum, all cell lines averaged) of the same molecule?
A: Its Cell number reduced is 33%.

Q: What about the “Adverse effects in the dosed animals” value ([3]; male CD-1 mice, 300 mg/kg PO, 0.5% NaCMC in water) of the same molecule?
A: Its value is “No adverse effects were observed”.

Q: What about the AUC ([3]; mouse plasma, 300 mg/kg PO NDGA, trapezoidal approximation, 5-240 min) of the same molecule?
A: The AUC was 28.5 peak area ratio* min.

Q: What about the “Number of cells after culture in 10% serum from treated mice (in words)” value (A549 cells) of the same molecule?
A: Its value is “not significant at the 0.05 level”.

Q: And the “Observations and adverse reactions” value ([4]; 100 mg/kg PO, one mouse (#187) died ~5 min after 30 min sample, possibly stress)?
A: Its value is “No other adverse effects were observed”.

Q: What about the concentration at 0.167 h [4, 5] of the same molecule?
A: Its concentration at 0.167 h is 43.4 ng/mL.

Q: And the concentration at 0.5 h [4, 6]?
A: The concentration at 0.5 h was 44.2 ng/mL.

Q: What about the concentration at 2 h [4, 5] of the same molecule?
A: The concentration at 2 h was 3.08 ng/mL.

Q: What about the concentration at 4 h [4, 6] of the same molecule?
A: The concentration at 4 h was 3.19 ng/mL.

Q: And the concentration at 0.167 h [4, 7]?
A: The concentration at 0.167 h was 70.8 ng/mL.

Q: And the concentration at 0.5 h [4, 8]?
A: Its concentration at 0.5 h is 49.6 ng/mL.

Q: What about the concentration at 0.5 h ([4]; 0.5% NaCMC in DI water, individual mice #183-187, read-out: Individual plasma concentration Conc.) of the same molecule?
A: Its concentration at 0.5 h is 40.9 ng/mL.

Q: What about the concentration at 2 h [4, 7] of the same molecule?
A: The concentration at 2 h was 1.83 ng/mL.

Q: And the concentration at 4 h [4, 8]?
A: Its concentration at 4 h is 2.75 ng/mL.

Q: And the concentration at 4 h ([4]; 0.5% NaCMC in DI water, individual mice #183-186, read-out: Individual plasma concentration Conc.)?
A: Its concentration at 4 h is 3.24 ng/mL.
